# In PubChem BioAssay (NCI):
#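 All cell lines were grown in 96-well plates and treated with compound for 48 hours. The concentration for full growth arrest is given as TGI.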
# Legend:
# Assay in all cases: NCI tumour cell line growth inhibition, 48 h
# 786-0 renal = test system: 786-0 renal
# A498 renal = test system: A498 renal
# BT-549 breast = test system: BT-549 breast
# COLO 205 colon = test system: COLO 205 colon
# M14 melanoma = test system: M14 melanoma
# MDA-MB-435 = test system: MDA-MB-435
# OVCAR-8 ovarian = test system: OVCAR-8 ovarian
# RPMI-8226 leukemia = test system: RPMI-8226 leukemia
# SK-MEL-2 melanoma = test system: SK-MEL-2 melanoma
# SK-MEL-5 melanoma = test system: SK-MEL-5 melanoma
# SK-OV-3 ovarian = test system: SK-OV-3 ovarian
# SNB-75 CNS = test system: SNB-75 CNS
# U251 CNS = test system: U251 CNS
# UO-31 renal = test system: UO-31 renal
# HT29 colon = test system: HT29 colon
# IGROV1 ovarian = test system: IGROV1 ovarian
# MDA-N = test system: MDA-N
Structure (SMILES),TGI (786-0 renal) [µM],TGI (A498 renal) [µM],TGI (BT-549 breast) [µM],TGI (COLO 205 colon) [µM],TGI (M14 melanoma) [µM],TGI (MDA-MB-435) [µM],TGI (OVCAR-8 ovarian) [µM],TGI (RPMI-8226 leukemia) [µM],TGI (SK-MEL-2 melanoma) [µM],TGI (SK-MEL-5 melanoma) [µM],TGI (SK-OV-3 ovarian) [µM],TGI (SNB-75 CNS) [µM],TGI (U251 CNS) [µM],TGI (UO-31 renal) [µM],TGI (HT29 colon) [µM],TGI (IGROV1 ovarian) [µM],TGI (MDA-N) [µM]
COC(=O)C1=C(C)NC(C)=C(C(=O)OC)C1c1nc2sccn2c1[N+](=O)[O-],> 100,> 100,> 100,> 100,> 100,> 100,> 100,> 100,> 100,> 100,> 100,> 100,> 100,> 100,,,
COc1ccc(N2C(=O)CSC2c2c[nH]c3ccccc23)cc1 (stereo unspecified),,,> 100,> 100,> 100,> 100,> 100,,,> 100,> 100,> 100,> 100,> 100,> 100,> 100,> 100
Cn1c2ccccc2c(=O)c2cccc(C(=O)NC(CCCN=C(N)N)C(=O)O)c21 (stereo unspecified),> 100,,> 100,> 100,> 100,> 100,> 100,> 100,> 100,> 100,> 100,> 100,> 100,> 100,> 100,> 100,> 100
CCC(=O)ONC(=O)Cn1ccc([N+](=O)[O-])n1,> 100,,,> 100,> 100,> 100,> 100,> 100,,> 100,> 100,> 100,,> 100,> 100,> 100,> 100
CSc1sc2ccccc2[s+]1,> 100,> 100,,> 100,> 100,,> 100,> 100,> 100,> 100,> 100,> 100,> 100,> 100,> 100,> 100,
O=C(N/N=C/c1cc(Br)cc(Br)c1[O-])c1ccccc1O.O=C(N/N=C/c1cc(Br)cc(Br)c1[O-])c1ccccc1O.[Cu+2],,,,,1.05,,1.38,,1.93,0.844,1.12,1.99,1.24,1.5,2.5,1.06,
Cn1c2ccccc2c(=NNc2cccc(C(=O)O)c2)c2ccccc21,52,,62.8,28.5,39.1,27.1,53.3,28.3,35.4,28.9,49.6,54,28.7,46.3,14.7,66.2,31.3
CC(=O)NC1c2ccccc2C(C)(C)C12CCC1(CC2)OCCO1 (stereo unspecified),> 100,,> 100,> 100,> 100,,> 100,> 100,> 100,> 100,> 10,> 100,> 100,> 100,> 100,> 100,> 100
COc1cc2c3c(c1OC)C1(C=CC(=O)C=C1)C[C@H]3N(C)CC2,> 100,,,> 100,> 100,,> 100,> 100,> 100,> 100,> 100,> 100,> 100,> 100,> 100,> 100,
Cc1ccc(S(=O)(=O)NC(=O)N[C@@H](Cc2cnc[nH]2)C(=O)O)cc1,> 100,,> 100,> 100,> 100,,> 100,> 100,> 100,> 100,> 100,> 100,> 100,> 100,> 100,> 100,> 100
CC(C(O)Cc1ccccc1)N(C)N=Nc1ccc([N+](=O)[O-])cc1 (stereo unspecified),38.6,,40.4,39.2,33.1,40.9,33.7,55.5,40.6,34.7,63.9,> 100,38.5,31.8,37.2,43.4,39.7
O=c1c(C(c2ccc(Cl)cc2)c2c(O)c3ccccc3n(-c3ccccc3)c2=O)c(O)c2ccccc2n1-c1ccccc1,,,,> 100,,,> 100,69.4,86.1,> 100,> 100,,> 100,> 100,,> 100,
COc1ccc(/C=C2\N=C(SC)NC2=O)cc1,> 100,,> 100,> 100,> 100,> 100,> 100,> 100,> 100,> 100,> 100,> 100,> 100,45.3,> 100,> 100,> 100
CC(C)CC(O)P(=O)(O)O (stereo unspecified),> 100,> 100,,> 100,> 100,> 100,,> 100,> 100,> 100,> 100,> 100,> 100,> 100,> 100,,> 100
O=NN(CCCl)C(=O)NC1CCC(O)CC1 (stereo unspecified),,> 100,,> 72.9,,,> 100,34.9,> 100,> 100,> 100,> 79.7,> 100,> 100,> 100,> 100,
Nc1ccc(S2(c3ccc(N)cc3)C=C(c3ccccc3)C(c3ccccc3)=C2)cc1,> 72.1,> 90.3,,> 100,> 100,> 71.3,98.4,> 100,> 88.4,> 100,> 59.7,> 100,> 100,> 90.5,> 100,> 100,> 100
COC1C=COC2(C)Oc3c(C)c(O)c4c(O)c(c(C5SCCS5)c(O)c4c3C2=O)NC(=O)C(C)=C/C=C\C(C)C2OC(C)(C)OC(C2C)C(C)C(OC(C)=O)C1C (stereo unspecified),44,29.3,9.26,> 100,> 100,47.9,28.5,> 100,23.2,15.5,> 100,> 100,> 100,32.6,,30.7,
CN1C2CCC1CC(C)(O)C2 (stereo unspecified),,,> 100,> 100,> 100,> 100,> 100,> 100,> 100,,,,> 100,> 100,> 100,,> 100
CC(C)NC(=O)OCCN=c1c2ccccc2ccc2ccccc12,> 100,,> 100,> 100,> 100,> 100,> 100,,73.4,35.8,> 100,> 100,> 100,64.4,> 100,> 100,> 100
COc1ccc(C2OC(c3ccncc3)=NN2C)cc1OC (stereo unspecified),> 100,98.4,,> 100,> 100,> 100,> 100,> 100,> 100,> 100,> 100,,> 100,> 100,> 100,> 100,> 100
COc1cc(OC)c(C2c3cc4c(cc3OC(N3CCCC3)C2C)OCO4)c(OC)c1 (stereo unspecified),53.8,,,,28.6,,> 100,43.1,57.7,29.4,,,,25.8,28.7,52.8,35.4
Cc1nc2sc3ccccc3n2c(=O)c1N=Nc1ccc(Cl)cc1,> 100,,> 100,> 100,> 100,> 100,> 100,> 100,> 100,> 100,> 100,> 100,> 100,,> 100,> 100,> 100
COC(=O)C1CCCN1C(=O)C(Cc1cn(S(=O)(=O)c2ccc(C)cc2)cn1)NC(=O)OC(C)(C)C (stereo unspecified),> 100,> 100,> 100,,> 100,,> 100,> 100,> 100,> 100,,> 100,> 100,> 100,> 100,> 100,> 100
Cc1ccc2c(c1)C(=O)C1(C2)Cc2cccc(C)c2C1=O (stereo unspecified),> 100,> 100,,> 100,> 100,> 100,> 100,> 100,,> 100,> 100,> 100,> 100,> 100,> 100,> 100,> 100
CSc1ncnc2c1ncn2CCC#N,> 100,> 100,,> 100,> 100,> 100,> 100,> 100,,> 100,> 100,> 100,,> 100,> 100,> 100,> 100
